{
  "source": "paper PMC10050424",
  "about": "“Structural basis of the substrate recognition and inhibition mechanism of Plasmodium falciparum nucleoside transporter PfENT1” (Nature Communications, 2023)",
  "key": {"PfENT1 mutant W53A": {"biological_target": "T1, PfENT1 mutant W53A (Plasmodium falciparum, UniProt Q8IDM6, W53A)", "T1 construct": "10xHis (N); made in house; host or cells: Sf9 insect cells (baculovirus)", "T1 sequence (Q8IDM6 whole entry W53A)": "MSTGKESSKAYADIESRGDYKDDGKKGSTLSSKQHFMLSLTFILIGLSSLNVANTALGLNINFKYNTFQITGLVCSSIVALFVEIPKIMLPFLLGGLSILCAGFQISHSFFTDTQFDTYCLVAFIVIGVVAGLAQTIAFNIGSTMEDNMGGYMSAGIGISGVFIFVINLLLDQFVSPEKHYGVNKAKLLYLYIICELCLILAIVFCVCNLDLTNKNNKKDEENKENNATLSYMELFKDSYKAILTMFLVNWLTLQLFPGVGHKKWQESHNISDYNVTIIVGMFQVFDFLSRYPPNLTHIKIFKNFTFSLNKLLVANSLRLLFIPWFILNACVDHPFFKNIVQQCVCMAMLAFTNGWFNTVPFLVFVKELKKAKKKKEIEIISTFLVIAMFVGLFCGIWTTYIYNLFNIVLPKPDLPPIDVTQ", "test": "ITC binding to PfENT1 mutant W53A", "method": "(§1) For the in vitro binding assay, Sf9 cells were solubilized in lysis buffer containing 2% (w/v) n-dodecyl-β-D-maltopyranoside (DDM, Anatrace) and protease inhibitor cocktail (0.8 μM aprotinin, 2 μM pepstatin, and 5 μg/ml leupeptin) at 4 °C for 2 h. The soluble supernatant was collected via centrifugation and incubated with Ni-NTA resin (QIAGEN) at 4 °C for 1 h. The resin was washed and eluted using lysis buffer containing 0.05% (w/v) DDM and 30 mM/300 mM imidazole. The protein was further purified by size-exclusion chromatography (Superdex 200 Increase 10/300; GE Healthcare) in buffer containing 25 mM MES (pH 6.0), 150 mM NaCl, and 0.05% (w/v) DDM. The peak fractions were pooled and concentrated to 10~50 μM for the nucleoside-binding assay.\n(§2) The binding affinity between wild-type and mutant PfENT1 with nucleosides and GSK4 was measured using a Micro-Cal ITC200 (Malvern). All proteins were prepared in 25 mM MES (pH 6.0), 150 mM NaCl, and 0.05% (w/v) DDM. Nucleosides (5~10 mM) and GSK4 (100-200 μM) dissolved in the same buffer were titrated against 20–50 μM PfENT1 proteins at 25 °C. PEAQ-ITC analysis software (MicroCal) was employed to analyze the data. All titrations were repeated three times."}, "PfENT1 R291A": {"biological_target": "T2, PfENT1 R291A (Plasmodium falciparum, UniProt Q8IDM6, R291A)", "T2 construct": "expressed in transfected cells; host or cells: S. cerevisiae BY4741, FUI1 deleted, PfENT1 mutant knock-in under the TEF1 promoter", "T2 sequence (Q8IDM6 whole entry R291A)": "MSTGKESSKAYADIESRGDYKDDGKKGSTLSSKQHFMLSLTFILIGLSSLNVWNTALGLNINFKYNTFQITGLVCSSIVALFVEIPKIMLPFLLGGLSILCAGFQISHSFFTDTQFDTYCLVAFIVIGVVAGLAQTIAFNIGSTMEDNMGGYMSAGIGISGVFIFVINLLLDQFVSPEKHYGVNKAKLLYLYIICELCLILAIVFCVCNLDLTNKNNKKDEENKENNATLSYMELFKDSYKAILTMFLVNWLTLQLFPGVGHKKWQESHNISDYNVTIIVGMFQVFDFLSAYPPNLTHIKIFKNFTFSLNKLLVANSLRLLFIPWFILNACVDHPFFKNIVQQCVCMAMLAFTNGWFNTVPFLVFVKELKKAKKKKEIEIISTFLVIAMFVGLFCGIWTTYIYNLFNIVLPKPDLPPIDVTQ", "test": "Inosine uptake assay, yeast expressing PfENT1 R291A", "format": "cell-based", "details": "Fig. 3d, construct R291A", "source_text": "(§3) Codon-optimized PfENT1 (for expression in yeast) was synthesized by Sangon Biotech. The carboxyl terminus of PfENT1 was HA-tagged through PCR. The TEF1p promoter and PGK1t terminator were amplified from BY4741 genomic DNA. Overlap PCR was applied to generate the gene overexpression cassette of PfENT1 (TEF1p promoter-PfENT1-PGK1t terminator). The two 600-bp homologous arms corresponding to the upstream and downstream regions of the FUI1 gene were amplified from BY4741 genomic DNA. The gene cassette of the ‘TEF1p promoter-PfENT1-PGK1t terminator’ together with the two homologous arms was cloned into the PUC19 plasmid through Gibson assembly, generating the final plasmid PUC19: PfENT1. PfENT1 mutations were generated using point mutation and verified by Sanger sequencing. The spacer targeting the FUI1 gene (5ʹ-[…]-3ʹ) was cloned into the pCas-BsaI plasmid to generate the pCas-FUI1 plasmid as described previously. […]\n(§4) Cells were grown overnight in YPD medium to mid-log phase and harvested by centrifugation at 3000 × g for 5 min. […] After washing by vacuum filtration with 2 ml ice-cold 2% glucose, the radioactivity retained on the filter was incubated with 1 mL of ULTIMA GOLD scintillation fluid (Perkin Elmer, 77-15311). Counts were measured using a liquid scintillation analyzer (Perkin Elmer, Tri-Carb 5110TR). […]"}, "PfENT1 D287A": {"biological_target": "T3, PfENT1 D287A (Plasmodium falciparum, UniProt Q8IDM6, D287A)", "T3 construct": "expressed in transfected cells; host or cells: S. cerevisiae BY4741, FUI1 deleted, PfENT1 mutant knock-in under the TEF1 promoter", "T3 sequence (Q8IDM6 whole entry D287A)": "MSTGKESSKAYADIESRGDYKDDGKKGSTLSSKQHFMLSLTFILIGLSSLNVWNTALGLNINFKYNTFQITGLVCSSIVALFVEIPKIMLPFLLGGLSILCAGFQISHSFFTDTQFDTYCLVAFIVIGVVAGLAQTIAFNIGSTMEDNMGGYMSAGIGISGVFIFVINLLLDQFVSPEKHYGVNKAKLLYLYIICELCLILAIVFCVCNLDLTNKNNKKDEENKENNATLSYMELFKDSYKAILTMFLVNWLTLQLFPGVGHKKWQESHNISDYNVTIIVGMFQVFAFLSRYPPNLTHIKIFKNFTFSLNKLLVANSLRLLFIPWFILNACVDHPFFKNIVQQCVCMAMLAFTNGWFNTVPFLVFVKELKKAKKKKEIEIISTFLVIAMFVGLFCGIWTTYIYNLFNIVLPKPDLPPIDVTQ", "test": "Inosine uptake assay, yeast expressing PfENT1 D287A", "format": "cell-based", "details": "Fig. 3d, construct D287A", "source_text": "as §3, §4"}, "PfENT1 mutant R291A": {"biological_target": "T4, PfENT1 mutant R291A (Plasmodium falciparum, UniProt Q8IDM6, R291A)", "T4 construct": "10xHis (N); made in house; host or cells: Sf9 insect cells (baculovirus)", "T4 sequence (Q8IDM6 whole entry R291A)": "as the sequence (Q8IDM6 whole entry R291A) above", "test": "ITC binding to PfENT1 mutant R291A", "method": "as §1, §2"}, "PfENT1 mutant S49A": {"biological_target": "T5, PfENT1 mutant S49A (Plasmodium falciparum, UniProt Q8IDM6, S49A)", "T5 construct": "10xHis (N); made in house; host or cells: Sf9 insect cells (baculovirus)", "T5 sequence (Q8IDM6 1-422 S49A)": "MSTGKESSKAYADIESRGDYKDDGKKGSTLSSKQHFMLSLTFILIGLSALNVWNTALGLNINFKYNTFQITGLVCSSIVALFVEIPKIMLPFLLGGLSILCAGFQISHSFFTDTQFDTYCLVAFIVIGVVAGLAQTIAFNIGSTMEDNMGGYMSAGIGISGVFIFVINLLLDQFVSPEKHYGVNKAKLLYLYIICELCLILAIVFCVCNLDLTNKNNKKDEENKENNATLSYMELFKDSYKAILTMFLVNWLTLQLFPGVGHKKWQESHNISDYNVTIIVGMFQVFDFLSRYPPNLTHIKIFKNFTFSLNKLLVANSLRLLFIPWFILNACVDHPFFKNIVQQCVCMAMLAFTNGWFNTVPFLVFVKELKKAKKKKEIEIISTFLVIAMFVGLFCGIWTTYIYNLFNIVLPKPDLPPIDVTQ", "test": "ITC binding to PfENT1 mutant S49A", "details": "Fig. 3c", "method": "as §1, §2"}},
  "note": "Several values for one entry are separate records, joined by “and”; a condition that tells them apart may be missing. Equal values may be shown once.",
  "data": [
    {"smiles": "OC[C@H]1O[C@@H](n2cnc3c(O)ncnc32)[C@H](O)[C@@H]1O", "note": "[Inosine, inosine]", "values": [
      {"measurement": "Kd", "setting": "PfENT1 mutant W53A; Kd, Mean and Mean ± SD, source data Figure 3c, construct W53A", "value": 1830, "unit": "µM"},
      {"measurement": "Kd", "setting": "PfENT1 mutant W53A; Kd, N=3 (individual experiments), source data Figure 3c, construct W53A", "value": "1900 µM and 1940 µM and 1650 µM"},
      {"measurement": "Kd", "setting": "PfENT1 mutant W53A; binding affinity (Kd), ITC, Fig. 3c, mutant W53A, mean ± SD (n = 3)", "value": "1830 ± 157", "unit": "µM"},
      {"measurement": "weaker binding than the wild type", "setting": "PfENT1 mutant W53A; inosine binding, W53A versus wild type", "value": 30, "unit": "fold"},
      {"measurement": "Uptake of [3H]-inosine (Percentage of PfENT1 WT)", "setting": "PfENT1 R291A", "value": "lost the transport activity"},
      {"measurement": "Uptake of [3H]-inosine (Percentage of PfENT1 WT)", "setting": "PfENT1 D287A", "value": "abolished the transport activity"},
      {"measurement": "binding affinity (Kd)", "setting": "PfENT1 mutant R291A; ITC, Fig. 3c, mutant R291A, mean ± SD (n = 3)", "value": "maintains inosine binding"},
      {"measurement": "Kd", "setting": "PfENT1 mutant R291A; Kd, Mean and Mean ± SD, source data Figure 3c, construct R291A", "value": 46.7, "unit": "µM"},
      {"measurement": "Kd", "setting": "PfENT1 mutant R291A; Kd, N=3 (individual experiments), source data Figure 3c, construct R291A", "value": "53 µM and 56 µM and 31 µM"},
      {"measurement": "Kd", "setting": "PfENT1 mutant R291A; binding affinity (Kd), ITC, Fig. 3c, mutant R291A, mean ± SD (n = 3)", "value": "46.7 ± 13.6", "unit": "µM"},
      {"measurement": "binding affinity (Kd)", "setting": "PfENT1 mutant S49A", "value": "complete abolishment"}
    ]}
  ]
}
